Assay results: patent publication US20110160056A1, “Triazole compounds, the use thereof and preparations containing these compounds” (BASF SE, priority 2008, published 2011)

Tests used:
Botrytis cinerea = experiment: Activity against the gray mold pathogen in the microtiter test; assay type: cell-based; details: 168 h, 31 ppm active compound, absorption at 405 nm on day 7 after inoculation, relative to active compound-free control
Septoria tritici = experiment: Activity against the Septoria leaf blotch pathogen in the microtiter test; assay type: cell-based; details: Zymoseptoria tritici, 168 h; 31 ppm active compound; absorption at 405 nm on day 7 after inoculation; relative to active compound-free control (100%)
Experimental: The stock solution was pipetted into a microtiter plate (MTP) and diluted with water to the stated active compound concentration. An aqueous malt-based spore suspension of Septoria tritici was then added. The plates were placed in a water vapor-saturated chamber at temperatures of 18° C. Using an absorption photometer, the MTPs were measured at 405 nm on day 7 after the inoculation. The measured parameters were compared to the growth of the active compound-free control variant (100%) and the fungus- and active compound-free blank value to determine the relative growth in % of the pathogens in the individual active compounds.

Cc1cc(F)ccc1OCC(C(O)C(C)(C)C)n1cncn1 (stereo not drawn) [I.8]
relative pathogen growth at 31 ppm (Botrytis cinerea): ≤ 13%
relative pathogen growth at 31 ppm (Septoria tritici): ≤ 14%

CC(C)(C)C(O)C(CCCCOc1cc(Cl)ccc1F)n1cncn1 (stereo not drawn) [I.12b, 8-(5-chloro-2-fluorophenoxy)-2,2-dimethyl-4-[1,2,4]triazol-1-yloctan-3-ol]
relative pathogen growth at 31 ppm (Botrytis cinerea): ≤ 13%
relative pathogen growth at 31 ppm (Septoria tritici): ≤ 14%

CC(C)(C)C(O)C(COc1ccc(Cl)cc1Br)n1cncn1 (stereo not drawn) [I.32]
relative pathogen growth at 31 ppm (Botrytis cinerea): ≤ 13%

CC(C)(C)C(O)C(COc1ccc(F)c(F)c1F)n1cncn1 (stereo not drawn) [I.40]
relative pathogen growth at 31 ppm (Botrytis cinerea): ≤ 13%
relative pathogen growth at 31 ppm (Septoria tritici): ≤ 14%

CC(C)(C)C(O)C(COc1cccc(C(F)(F)F)c1F)n1cncn1 (stereo not drawn) [I.45]
relative pathogen growth at 31 ppm (Botrytis cinerea): ≤ 13%
relative pathogen growth at 31 ppm (Septoria tritici): ≤ 14%
